Experimental data as given in PMC11542736 (Cell reports. Physical science, 2024).

Molecular target: TrpR^WT (Escherichia coli, UniProt P0A881)
Assay: Ptrp-GFP reporter, flow cytometry
Assay type: cell-based
Conditions: 1 mM ligand, E. coli Nissle 1917 trpR knockout, 37 °C, 8 h; derepression

- Ptrp-GFP reporter, flow cytometry: IPA, IAA, and IAld
Compound: O=C(O)Cc1c[nH]c2ccccc12 [IAA, indole-3-acetic acid]
